Results taken from article PMC6979384, “Characterization of the plant homeodomain (PHD) reader family for their histone tail interactions” (Epigenetics & Chromatin, 2020).

Assays:
Assay in all cases: Histone peptide microarray
Format in all cases: binding, human
ING3 = details: GST-tagged ING3; sheet Array Heatmap; each array performed twice, total n = 4
How it was run: (§1)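 Histone peptide library (293 synthetic peptides, single/combinatorial PTMs) arrayed and probed with 0.5 μM purified GST-PHD domain; optimized protocol; quadruplicate mean and SD reported.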

DPF2 (PPC2W2) = details: GST-tagged DPF2 (PPC2W2 = Dual PHD + C2W2-type Zn-finger); sheet Array Heatmap; each array performed twice, total n = 4
How it was run: as §1

RAG2 = details: GST-tagged RAG2; sheet Array Heatmap; each array performed twice, total n = 4
How it was run: as §1

ING1 = details: GST-tagged ING1; sheet Array Heatmap; each array performed twice, total n = 4
How it was run: as §1

KDM7A = details: GST-tagged KDM7A; sheet Array Heatmap; each array performed twice, total n = 4
How it was run: as §1

AIRE (PP) = details: GST-tagged AIRE (PP); sheet Array Heatmap; each array performed twice, total n = 4
How it was run: as §1

DIDO1 = details: GST-tagged DIDO1; sheet Array Heatmap; each array performed twice, total n = 4
How it was run: as §1

BAZ2B = details: GST-tagged BAZ2B; sheet Array Heatmap; each array performed twice, total n = 4
How it was run: as §1

PHRF1 (RP) = details: GST-tagged PHRF1 (RP); sheet Array Heatmap; each array performed twice, total n = 4
How it was run: as §1

ING4 = details: GST-tagged ING4; sheet Array Heatmap; each array performed twice, total n = 4
How it was run: as §1

KDM5B (1) = details: GST-tagged KDM5B (1); sheet Array Heatmap; each array performed twice, total n = 4
How it was run: as §1

TAF3 = details: GST-tagged TAF3; sheet Array Heatmap; each array performed twice, total n = 4
How it was run: as §1

KDM5B (3) = details: GST-tagged KDM5B (3); sheet Array Heatmap; each array performed twice, total n = 4
How it was run: as §1

KDM4C (TTP) = details: GST-tagged KDM4C (TTP = Tandem Tudor domain + PHD); sheet Array Heatmap; each array performed twice, total n = 4
How it was run: as §1

MORC3 (CW) = details: GST-tagged MORC3 (CW = CW-type Zn-finger); sheet Array Heatmap; each array performed twice, total n = 4
How it was run: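 Binding read as mean relative signal from 4 replicates; microarray held 293 synthetic histone peptides with single or combinatorial PTMs. Each GST-tagged PHD reader was applied at 0.5 μM using the optimized Petell protocol.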

PHF2 = details: GST-tagged PHF2; sheet Array Heatmap; each array performed twice, total n = 4
How it was run: as §1

PHF8 = details: GST-tagged PHF8; sheet Array Heatmap; each array performed twice, total n = 4
How it was run: as §1

SP140L = details: GST-tagged SP140L; sheet Array Heatmap; each array performed twice, total n = 4
How it was run: as §1

PHF21A = details: GST-tagged PHF21A; sheet Array Heatmap; each array performed twice, total n = 4
How it was run: as §1

KDM5A (1) = details: GST-tagged KDM5A (1); sheet Array Heatmap; each array performed twice, total n = 4
How it was run: as §1

ING2 = details: GST-tagged ING2; sheet Array Heatmap; each array performed twice, total n = 4
How it was run: as §1

BPTF (PB) = details: GST-tagged BPTF (PB = PHD + Bromodomain); sheet Array Heatmap; each array performed twice, total n = 4
How it was run: as §1

PHF13 = details: GST-tagged PHF13; sheet Array Heatmap; each array performed twice, total n = 4
How it was run: as §1

MLL5 = details: GST-tagged MLL5; sheet Array Heatmap; each array performed twice, total n = 4
How it was run: as §1

PHF23 = details: GST-tagged PHF23; sheet Array Heatmap; each array performed twice, total n = 4
How it was run: as §1

ING5 = details: GST-tagged ING5; sheet Array Heatmap; each array performed twice, total n = 4
How it was run: as §1

CHD5 (PCC) = details: GST-tagged CHD5 (PCC = PHD + Dual Chromodomain); sheet Array Heatmap; each array performed twice, total n = 4
How it was run: as §1

Substance | Array Heatmap signal (histone peptide microarray) (ING3) | Array Heatmap signal (histone peptide microarray) (DPF2 (PPC2W2)) | Array Heatmap signal (histone peptide microarray) (RAG2) | Array Heatmap signal (histone peptide microarray) (ING1) | Array Heatmap signal (histone peptide microarray) (KDM7A) | Array Heatmap signal (histone peptide microarray) (AIRE (PP)) | Array Heatmap signal (histone peptide microarray) (DIDO1) | Array Heatmap signal (histone peptide microarray) (BAZ2B) | Array Heatmap signal (histone peptide microarray) (PHRF1 (RP)) | Array Heatmap signal (histone peptide microarray) (ING4) | Array Heatmap signal (histone peptide microarray) (KDM5B (1)) | Array Heatmap signal (histone peptide microarray) (TAF3) | Array Heatmap signal (histone peptide microarray) (KDM5B (3)) | Array Heatmap signal (histone peptide microarray) (KDM4C (TTP)) | Array Heatmap signal (histone peptide microarray) (MORC3 (CW)) | Array Heatmap signal (histone peptide microarray) (PHF2) | Array Heatmap signal (histone peptide microarray) (PHF8) | Array Heatmap signal (histone peptide microarray) (SP140L) | Array Heatmap signal (histone peptide microarray) (PHF21A) | Array Heatmap signal (histone peptide microarray) (KDM5A (1)) | other results
H3K9me3: H3 1-20 [Peptide H3K9me3] | 0.491 | 0.7027 | 0.2542 | 0.5591 | 0.3458 | 0.4645 | 0.7537 | 0.4699 | 0.7596 | 0.4493 | 0.6712 | 0.2799 | 0.5156 | 0.4665 | 0.4553 | 0.5168 | 0.3233 | 0.3305 | 0.4617 | 0.4576 | Array Heatmap signal (histone peptide microarray) (ING2): 0.5901; Array Heatmap signal (histone peptide microarray) (BPTF (PB)): 0.3464; Array Heatmap signal (histone peptide microarray) (PHF13): 0.6291; Array Heatmap signal (histone peptide microarray) (MLL5): 0.5674; Array Heatmap signal (histone peptide microarray) (PHF23): 0.5665; Array Heatmap signal (histone peptide microarray) (ING5): 0.3535; Array Heatmap signal (histone peptide microarray) (CHD5 (PCC)): 0.824
H3S10p: H3 1-20 [Peptide H3S10p] | 0.4878 | 0.7013 | 0.2741 | 0.5325 | 0.4084 | 0.7118 | 0.6622 | 0.5109 | 0.5714 | 0.4889 | 0.6981 | 0.3504 | 0.5217 | 0.5402 | 0.4872 | 0.4863 | 0.4129 | 0.3768 | 0.5054 | 0.5146 | Array Heatmap signal (histone peptide microarray) (ING2): 0.606; Array Heatmap signal (histone peptide microarray) (BPTF (PB)): 0.3684; Array Heatmap signal (histone peptide microarray) (PHF13): 0.646; Array Heatmap signal (histone peptide microarray) (MLL5): 0.5416; Array Heatmap signal (histone peptide microarray) (PHF23): 0.5413; Array Heatmap signal (histone peptide microarray) (ING5): 0.3966; Array Heatmap signal (histone peptide microarray) (CHD5 (PCC)): 0.8638
